Laboratory results reported in PubChem BioAssay (NCI).
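Exposure lasted 48 hours, with cells grown in 96-well plates and compounds tested at five concentrations. GI50 marks 50% less growth. TGI: concentration producing complete growth inhibition.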

Legend:
Assay in all cases: NCI anticancer screen, dose series, 48 h
SF-295 CNS = tested on: SF-295 CNS
A498 renal = tested on: A498 renal
HL-60(TB) leukemia = tested on: HL-60(TB) leukemia
IGROV1 ovarian = tested on: IGROV1 ovarian
DU-145 prostate = tested on: DU-145 prostate
RPMI-8226 leukemia = tested on: RPMI-8226 leukemia
PC-3 prostate = tested on: PC-3 prostate
OVCAR-4 ovarian = tested on: OVCAR-4 ovarian
BT-549 breast = tested on: BT-549 breast
MDA-MB-231 breast = tested on: MDA-MB-231 breast
SR leukemia = tested on: SR leukemia
HT29 colon = tested on: HT29 colon
NCI-H460 lung = tested on: NCI-H460 lung
RXF 393 renal = tested on: RXF 393 renal
U251 CNS = tested on: U251 CNS
SK-MEL-5 melanoma = tested on: SK-MEL-5 melanoma
NCI-H23 lung = tested on: NCI-H23 lung
SNB-19 CNS = tested on: SNB-19 CNS
HCC-2998 colon = tested on: HCC-2998 colon
K-562 leukemia = tested on: K-562 leukemia
EKVX NSCLC = tested on: EKVX NSCLC
SF-539 CNS = tested on: SF-539 CNS
OVCAR-5 ovarian = tested on: OVCAR-5 ovarian
MCF7 breast = tested on: MCF7 breast
HCT-15 colon = tested on: HCT-15 colon
UACC-62 melanoma = tested on: UACC-62 melanoma
SN12C renal = tested on: SN12C renal
LOX IMVI melanoma = tested on: LOX IMVI melanoma
OVCAR-8 ovarian = tested on: OVCAR-8 ovarian
786-0 renal = tested on: 786-0 renal
MOLT-4 leukemia = tested on: MOLT-4 leukemia
SK-MEL-2 melanoma = tested on: SK-MEL-2 melanoma
HCT-116 colon = tested on: HCT-116 colon
T-47D breast = tested on: T-47D breast
CCRF-CEM leukemia = tested on: CCRF-CEM leukemia
TK-10 renal = tested on: TK-10 renal
SK-MEL-28 melanoma = tested on: SK-MEL-28 melanoma
COLO 205 colon = tested on: COLO 205 colon
ACHN renal = tested on: ACHN renal
MALME-3M melanoma = tested on: MALME-3M melanoma
UACC-257 melanoma = tested on: UACC-257 melanoma
SF-268 CNS = tested on: SF-268 CNS
A549 NSCLC = tested on: A549 NSCLC
SK-OV-3 ovarian = tested on: SK-OV-3 ovarian
M14 melanoma = tested on: M14 melanoma
UO-31 renal = tested on: UO-31 renal
SNB-75 CNS = tested on: SNB-75 CNS
HOP-62 NSCLC = tested on: HOP-62 NSCLC
NCI-H522 lung = tested on: NCI-H522 lung
HOP-92 NSCLC = tested on: HOP-92 NSCLC
CAKI-1 renal = tested on: CAKI-1 renal
NCI-H226 lung = tested on: NCI-H226 lung
HS 578T breast = tested on: HS 578T breast
SW-620 colon = tested on: SW-620 colon
KM12 colon = tested on: KM12 colon
NCI/ADR-RES ovarian = tested on: NCI/ADR-RES ovarian

COc1ccc(Cn2cc3c(c2-c2cc(OC)c(OC)c(OC)c2)CCc2c(CN4CCOCC4)noc2-3)cc1
GI50 (SF-295 CNS): 426 nM | TGI (SF-295 CNS): > 100000 nM | GI50 (A498 renal): 305 nM | TGI (A498 renal): 1030 nM | GI50 (HL-60(TB) leukemia): 387 nM | TGI (HL-60(TB) leukemia): 13100 nM | GI50 (IGROV1 ovarian): 871 nM | TGI (IGROV1 ovarian): > 100000 nM | GI50 (DU-145 prostate): 2190 nM | TGI (DU-145 prostate): > 100000 nM | GI50 (RPMI-8226 leukemia): 1160 nM | TGI (RPMI-8226 leukemia): > 100000 nM | GI50 (PC-3 prostate): 550 nM | TGI (PC-3 prostate): > 100000 nM | GI50 (OVCAR-4 ovarian): 18600 nM | TGI (OVCAR-4 ovarian): > 100000 nM | GI50 (BT-549 breast): 1140 nM | TGI (BT-549 breast): 4970 nM | GI50 (MDA-MB-231 breast): 2810 nM | TGI (MDA-MB-231 breast): > 100000 nM | GI50 (SR leukemia): 350 nM | TGI (SR leukemia): > 100000 nM | GI50 (HT29 colon): 637 nM | TGI (HT29 colon): > 100000 nM | GI50 (NCI-H460 lung): 506 nM | TGI (NCI-H460 lung): > 100000 nM | GI50 (RXF 393 renal): 382 nM | TGI (RXF 393 renal): > 100000 nM | GI50 (U251 CNS): 779 nM | TGI (U251 CNS): > 100000 nM | GI50 (SK-MEL-5 melanoma): 1150 nM | TGI (SK-MEL-5 melanoma): 14300 nM | GI50 (NCI-H23 lung): 1850 nM | TGI (NCI-H23 lung): > 100000 nM | GI50 (SNB-19 CNS): 1150 nM | TGI (SNB-19 CNS): > 100000 nM | GI50 (HCC-2998 colon): 1740 nM | TGI (HCC-2998 colon): > 100000 nM | GI50 (K-562 leukemia): 399 nM | TGI (K-562 leukemia): > 100000 nM | GI50 (EKVX NSCLC): 1350 nM | TGI (EKVX NSCLC): > 100000 nM | GI50 (SF-539 CNS): 448 nM | TGI (SF-539 CNS): > 100000 nM | GI50 (OVCAR-5 ovarian): 3220 nM | TGI (OVCAR-5 ovarian): > 100000 nM | GI50 (MCF7 breast): 362 nM | TGI (MCF7 breast): > 100000 nM | GI50 (HCT-15 colon): 457 nM | TGI (HCT-15 colon): > 100000 nM | GI50 (UACC-62 melanoma): 488 nM | TGI (UACC-62 melanoma): > 100000 nM | GI50 (SN12C renal): 3670 nM | TGI (SN12C renal): > 100000 nM | GI50 (LOX IMVI melanoma): 446 nM | TGI (LOX IMVI melanoma): > 100000 nM | GI50 (OVCAR-8 ovarian): 1800 nM | TGI (OVCAR-8 ovarian): > 100000 nM | GI50 (786-0 renal): 668 nM | TGI (786-0 renal): > 100000 nM | GI50 (MOLT-4 leukemia): 2590 nM | TGI (MOLT-4 leukemia): > 100000 nM | GI50 (SK-MEL-2 melanoma): 549 nM | TGI (SK-MEL-2 melanoma): > 100000 nM | GI50 (HCT-116 colon): 443 nM | TGI (HCT-116 colon): > 100000 nM | TGI (T-47D breast): > 100000 nM | GI50 (CCRF-CEM leukemia): 1070 nM | TGI (CCRF-CEM leukemia): > 100000 nM | GI50 (TK-10 renal): > 100000 nM | TGI (TK-10 renal): > 100000 nM | GI50 (SK-MEL-28 melanoma): > 47700 nM | TGI (SK-MEL-28 melanoma): > 100000 nM | GI50 (COLO 205 colon): 1230 nM | TGI (COLO 205 colon): 6080 nM | GI50 (ACHN renal): 718 nM | TGI (ACHN renal): > 100000 nM | GI50 (MALME-3M melanoma): 495 nM | TGI (MALME-3M melanoma): > 100000 nM | GI50 (UACC-257 melanoma): 963 nM | TGI (UACC-257 melanoma): > 100000 nM | GI50 (SF-268 CNS): 870 nM | TGI (SF-268 CNS): > 100000 nM | GI50 (A549 NSCLC): 1130 nM | TGI (A549 NSCLC): > 100000 nM | GI50 (SK-OV-3 ovarian): 1470 nM | TGI (SK-OV-3 ovarian): > 100000 nM | GI50 (M14 melanoma): 555 nM | TGI (M14 melanoma): > 100000 nM | GI50 (UO-31 renal): 674 nM | TGI (UO-31 renal): > 100000 nM | GI50 (SNB-75 CNS): 308 nM | TGI (SNB-75 CNS): > 100000 nM | GI50 (HOP-62 NSCLC): 1030 nM | TGI (HOP-62 NSCLC): > 100000 nM | GI50 (NCI-H522 lung): 269 nM | TGI (NCI-H522 lung): 816 nM | GI50 (HOP-92 NSCLC): 667 nM | TGI (HOP-92 NSCLC): > 100000 nM | GI50 (CAKI-1 renal): 565 nM | TGI (CAKI-1 renal): > 100000 nM | GI50 (NCI-H226 lung): 821 nM | TGI (NCI-H226 lung): > 100000 nM | GI50 (HS 578T breast): 432 nM | TGI (HS 578T breast): > 100000 nM | GI50 (SW-620 colon): 458 nM | TGI (SW-620 colon): > 100000 nM | GI50 (KM12 colon): 435 nM | TGI (KM12 colon): > 100000 nM | GI50 (NCI/ADR-RES ovarian): 450 nM | TGI (NCI/ADR-RES ovarian): > 100000 nM
